# Patent US10653655B2, “Composition for preventing or improving peripheral neuropathy” (AJINOMOTO CO., INC., priority 2014, dated 2020)
# Legend:
# [1] = system: rat having hypersensitive pain induced by anticancer agent (Oxaliplatin); assay: Von Frey test in rat having hypersensitive pain induced by anticancer agent (Experimental Example 1); assay type: in vivo; details: SD rat, Oxaliplatin 5 mg/kg i.p. 5 days; oral once per day 28 days; L-serine 10.5 mg/kg, EPA 300 mg/kg equivalent; 22 and 28 days; stimulation intensity 4 g, 8 g, 15 g
# Description: 6-Week-old male SD rats were divided into 5 groups (1A group-1E group, N=6) based on the body weight, an anticancer agent (Oxaliplatin 5 mg/body weight kg) was intraperitoneally administered to 4 groups other than 1A group for 5 days, and saline was intraperitoneally administered to 1A group for 5 days. In addition, the following evaluation liquid was orally ingested once per day in the time zone of 4 to 5 hours after start of the light period for 28 days simultaneously from the start of the intraperitoneal administration. As eicosapentaenoic acid administered to 1D group, 1E group, fish oil corresponding to 300 mg/body weight kg (equivalent to 429 mg/body weight kg as n-3 fatty acid) was used. Evaluation Liquids for 1A Group-1E Group: • 1A group: distilled water • 1B group: distilled water • 1C group: L-serine 10.5 mg/body weight kg • 1D group: eicosapentaenoic acid 300 mg/body weight kg equivalent • 1E group: L-serine 10.5 mg/body weight kg+eicosapentaenoic acid 300 mg/body weight kg equivalent Von Frey test was performed at 22 days and 28 days after the start of the anticancer agent administration. […] The ratio (%) of the number of pain response relative to the number (10 times) of filament pressing was calculated at each stimulation intensity.
# [2] = system: rat having hypersensitive pain induced by gonitis inducing agent (Zymosan); assay: Gastrocnemius weight of right and left foot in Zymosan gonitis rat (Experimental Example 2); assay type: in vivo; details: 21 days after Zymosan, rank among 2C-2E groups
# Description: (§1) 8-Week-old male SD rats were divided into 5 groups (2A group-2E group, N=7) based on the body weight, and 2 mg of a gonitis inducing agent (Zymosan) was administered to the right knee cartilage part in 4 groups other than 2A group. In addition, the following evaluation liquid was orally ingested once per day in the time zone of 4 to 5 hours after start of the light period for 21 days from the administration of the gonitis inducing agent to the right knee. As eicosapentaenoic acid administered to 2D group, 2E group, fish oil corresponding to 300 mg/body weight kg (equivalent to 429 mg/body weight kg as n-3 fatty acid) was used.
# (§2) Evaluation Liquids for 2A Group-2E Group: • 2A group: distilled water • 2B group: distilled water • 2C group: L-serine 10.5 mg/body weight kg • 2D group: eicosapentaenoic acid 300 mg/body weight kg equivalent • 2E group: L-serine 10.5 mg/body weight kg+eicosapentaenoic acid 300 mg/body weight kg equivalent
# After the completion of ingestion of the evaluation liquid (21 days after gonitis inducing agent administration), rats were fasted for 17 hours, and the body weight, gastrocnemius weight of the right foot and the left foot, liver weight and weight of fat around epididymis of each group were measured.
# [3] = system: rat having hypersensitive pain induced by gonitis inducing agent (Zymosan); assay: Von Frey test in rat having hypersensitive pain induced by gonitis inducing agent (Zymosan) (Experimental Example 2); assay type: in vivo; details: SD rat, Zymosan 2 mg right knee; oral once per day; L-serine 10.5 mg/kg, EPA 300 mg/kg equivalent; 7 and 14 days; right and left foot; 4 g, 8 g, 15 g
# Description: as §1, §2
# Von Frey test was performed at 7 days and 14 days after the gonitis inducing agent administration. […] The ratio (%) of the number of pain response relative to the number (5 times) of filament pressing was calculated at each stimulation intensity.
# [4] = system: peripheral neuropathic pain in an animal model of anticancer agent or diabetes; details: at the maximum concentration of L-serine; WO 2011/111355; cited from earlier work
structure (smiles),measurement,setting,value
N[C@@H](CO)C(=O)O [L-serine],number of pain response (Von Frey test) as compared to 1B group,[1],slightly decreased
same,"gastrocnemius weight of the right foot, comparison in 2C group to 2E group",[2]; after 17 h fasting,lowest
same,"difference in the gastrocnemius weight of both feet, comparison among 2C group to 2E group",[2],largest
same,number of pain response (Von Frey test) as compared to 2B group,[3],slightly decreased
same,relieving effect on peripheral neuropathic pain due to anticancer agents and diabetes,[4],partial
